Experimental data reported in US7255984B2, “Combination therapy for osteoporosis” (Pfizer Inc., priority 1996, dated 2007).

Columns and labels:
[1] = system: ovariectomized (OVX) rats, lumbar spine; experiment: Lumbar vertebral bone mineral measurements (DXA) in OVX rats, combination and sequential treatment; assay type: in vivo, female Sprague-Dawley rats
Method: One hundred and four female Sprague-Dawley rats (Charles River, Wilmington, Mass.) at 12 months of age were sham-operated or ovariectomized (OVX) at month 0. Three months post-surgery, OVX rats were treated with either Prostaglandin E2 (PGE2), a known anabolic bone agent, at 3 mg/kg/day (subcutaneously injection), or PGE2 at 3 mg/kg/day (subcutaneously injection) combined with droloxifene (DRO) at 10 mg/kg/day (orally) for 2 months. Thereafter, the PGE2 treatment was withdrawn and the rats were then treated with either vehicle (10% alcohol in saline) or DRO (10 mg/kg/day, orally) for another one and a half months as described in the following.
Group VIII: Eight OVX rats were subcutaneously injected with 3 mg/kg/day of PGE2 from months 3 to 5, and autopsied at month 5.
Group IX: Eight OVX rats were subcutaneously injected with 3 mg/kg/day of PGE2 from months 3 to 5, and vehicle from 5 to 6.5 months, and then autopsied at month 6.5.
Group X: Eight OVX rats were subcutaneously injected with 3 mg/kg/day of PGE2 from months 3 to 5, and 10 mg/kg/day of DRO orally from 5 to 6.5 months, and then autopsied at month 6.5.
Group XI: Eight OVX rats were subcutaneously injected with 3 mg/kg/day of PGE2 and 10 mg/kg/day of DRO orally from months 3 to 5, and then autopsied at month 5.
Group XII: Eight OVX rats were subcutaneously injected with 3 mg/kg/day of PGE2 and 10 mg/kg/day of DRO orally from months 3 to 5, and vehicle from months 5 to 6.5, then autopsied at month 6.5.
Group XIII: Eight OVX rats were subcutaneously injected with 3 mg/kg/day of PGE2 and 10 mg/kg/day of DRO orally from months 3 to 5, and DRO alone from months 5 to 6.5, then autopsied at month 6.5.
Both PGE2 (Cayman Chemical Co., Ann Arbor, Mich.) or droloxifene (Pfizer Inc. Groton, Conn.) powder was first dissolved in 100% ethanol and further diluted with saline into desired concentrations (final ethanol concentration was 10%). A PGE2 solution was daily injected subcutaneously on the back at 1 ml/kg. A droloxifene solution was given daily p.o. at 1 ml/rat.
Dual energy x-ray absorptiometry (QDR 1000/W, Hologic, Inc., Waltham, Mass.) equipped with a “Regional High Resolution Scan” software (Hologic, Inc., Waltham, Mass.) was used to determined the bone area, bone mineral content (BMC), and bone mineral density (BMD) of whole lumbar spine and each of the six lumbar vertebrae (LV1-6) in the anesthetized rats. The rats were anesthetized by injection (i.p.) of 1 ml/kg of a mixture of ketamine/rompun (ratio of 4 to 3), and then placed on the rat platform. The scan field sized was 6×1.9 cm, resolution was 0.0254×0.0127 cm, and scan speed was 7.25 mm/sec. The whole lumbar spine scan image was obtained and analyzed. Bone area (BA), and bone mineral content (BMC) were determined, and bone mineral density was calculated (MBC divided by BA) for the whole lumbar spine and each of the six lumbar vertebrae (LV1-6).

Ovariectomized Rats = details: cited from earlier work
[2] = system: Osteogenic Female Rat Skeleton; details: risedronate administered after discontinuing PGE2; cited from earlier work
[3] = OVX rats, PGE2 3 mg/kg/day months 3 to 5, then vehicle months 5 to 6.5

SMILES: CC/C(=C(/c1ccc(OCCN(C)C)cc1)c1cccc(O)c1)c1ccccc1 [DRO, phenol, 3-[1-[4[2-(dimethylamino)ethoxy]phenyl]-2-phenyl-1-butenyl]-, (E)-]
- Effect of DRO on the anabolic effects of PGE2 ([1]; OVX rats, DRO 10 mg/kg/day orally combined with PGE2 3 mg/kg/day s.c. for 2 months): did not blunt
- Maintenance of PGE2-restored bone after discontinuation of PGE2 ([1]; OVX rats, PGE2 months 3 to 5, then DRO 10 mg/kg/day orally months 5 to 6.5): completely maintained
- Bone loss in the lumbar spine when PGE2 was withdrawn and DRO continued for another 1.5 months ([1]; OVX rats, PGE2 plus DRO months 3 to 5, then DRO alone 10 mg/kg/day months 5 to 6.5): no bone loss

SMILES: CCCCC[C@H](O)/C=C/[C@H]1[C@H](O)CC(=O)[C@@H]1C/C=C\CCCC(=O)O [PGE2, Prostaglandin E2]
- BMC of LV2 upon PGE2 cessation of treatment [1, 3]: significant decrease
- BMD of LV1, LV2, and LV3 upon PGE2 cessation of treatment [1, 3]: significant decrease
- BMC and BMD of whole lumbar spine and lumbar vertebrae versus sham control levels ([1]; rats 3 months post-OVX, treated for 2 months (months 3 to 5), PGE2 3 mg/kg/day s.c., DRO 10 mg/kg/day orally): completely restored

SMILES: O=C(c1ccc(OCCN2CCCCC2)cc1)c1c(-c2ccc(O)cc2)sc2cc(O)ccc12 [raloxifene, 6hydroxy-2-(4-hydroxyphenyl)-3-[4-(2-piperidinoethoxy)benzoyl]benzo[b]thiophene]
- Action on bone and lipids (Ovariectomized Rats; compared with estrogen): mimics the favorable action of estrogen
- Uterine stimulatory effect (Ovariectomized Rats; unlike estrogen): minimal

SMILES: O=P(O)(O)C(O)(Cc1cccnc1)P(=O)(O)O [risedronate]
- Time for which most of the new cancellous and cortical bone induced by PGE2 is maintained after discontinuing PGE2 [2]: at least 60 days
